{
  "source": "patent US6864068B2",
  "about": "“Antifungal proteins” (Syngenta Limited, priority 1995, dated 2005)",
  "format_in_all_cases": "cell-based",
  "key": {"[1]": {"tested_on": "Phoma betae", "test": "Antifungal activity in three media differing in ionic strength (Table 3)", "details": "72 hours", "protocol": "(§1) The antifungal activity of the G9R and V39R Rs-AFP2 isoforms was also assessed on a set of seven different phytopathogenic fungi in three media differing in ionic strength: SMF−, SMF plus 1 mM CaCl2 and 50 mM KCl, and SMF plus 5 mM CaCl2 and 50 mM KCl. The fungi tested were: Alternaria brassicicola, Ascochyta pisi, Botrytis cinerea, Fusarium culmorum, Nectria haematococca, Phoma betae and Verticillium dahliae."}, "[2]": {"tested_on": "Fusarium culmorum", "test": "Antifungal activity in three media differing in ionic strength (Table 3)", "protocol": "as §1"}, "[3]": {"tested_on": "Alternaria brassicicola", "test": "Antifungal activity in three media differing in ionic strength (Table 3)", "protocol": "as §1"}, "[4]": {"tested_on": "Verticillium dahliae", "test": "Antifungal activity in three media differing in ionic strength (Table 3)", "protocol": "as §1"}, "[5]": {"tested_on": "Ascochyta pisi", "test": "Antifungal activity in three media differing in ionic strength (Table 3)", "protocol": "as §1"}, "[6]": {"tested_on": "Nectria haematococca", "test": "Antifungal activity in three media differing in ionic strength (Table 3)", "protocol": "as §1"}, "[7]": {"tested_on": "Botrytis cinerea", "test": "Antifungal activity in three media differing in ionic strength (Table 3)", "protocol": "as §1"}, "[8]": {"tested_on": "F culmorum", "test": "Specific antifungal activity of Rs-AFP2 isoforms in SMF− and SMF+ media", "set-up": "IC50 SMF− / IC50 SMF+: unit not given here", "protocol": "For each isoform, two independent purifications were carried out and the antifungal activity was determined in duplicate using F culmorum as a test fungus in two different media: a low ionic strength medium called SMF-(Terras et al, 1992, J Biol Chem, 267:15301-15309) and the same medium supplemented with 1 mM CaCl2 and 50 mM KCl called SMF+. The presence of salts in the test medium, especially salts with divalent cations, reduces the specific activity of Rs-AFP2. Seed-purified as well as yeast-expressed wild type Rs-AFP2 served as a control in the assays.\nThe relative specific activity is expressed as the specific activity of the mutant divided by the specific activity of yRs-AFP2 and multiplied by 100. […] The specific activity was measured in medium SMF−and SMF+.\nDeviations are given as standard error of the mean (sem) based on the triplicate experiments. In SMF−, the medium without added salts, most of the derivatives show no decrease or only a minor decrease in antifungal activity, while in SMF+, the medium with added salts, there is a significant decrease in antifungal activity for several Rs-AFP2 isoforms."}, "[9]": {"tested_on": "F culmorum", "test": "Growth inhibition in SMF with varying CaCl2 or KCl (FIG. 7)", "protocol": "Their antifungal activity was determined in SMF with increasing Ca^2+ or K^+ concentration and compared with that of plant-derivable wild type Rs-AFP2 (isolated from seed) as well as yeast purified Rs-AFP2. FIG. 7 is a graph of the percentage growth inhibition of F culmorum caused by 10 μg/ml of yeast-purified Rs-AFP2 (SEQ ID NO: 20) (open circles), seed-purified Rs-AFP2 (SEQ ID NO: 77) (closed circles), Rs-AFP2/G9R (SEQ ID NO: 38) (squares) and Rs-AFP2/V39R (SEQ ID NO: 43) (triangles) in a medium consisting of SMF with varying concentrations of CaCl2 (panel A) and KCl (panel B)."}, "[10]": {"details": "SMF plus 1 mM CaCl2 and 50 mM KCl"}},
  "data": [
    {"substance": "yRs-AFP2/V39R: yeast-expressed Rs-AFP2 isoform, position 39 valine to arginine (QKLCQRPSGTWSGVCGNNNACKNQCIRLEKARHGSCNYRFPAHKCICYFPC; listed as Raphanus sativus)", "values": [
      {"measurement": "IC50 VALUES, P betae, SMF + 1 mM CaCl2/50 mM KCl", "setting": "[1]", "value": 40.0, "unit": "µg/mL"},
      {"measurement": "IC50 VALUES, P betae, SMF + 5 mM CaCl2/50 mM KCl", "setting": "[1]", "value": 70.0, "unit": "µg/mL"},
      {"measurement": "IC50 VALUES, P betae, SMF", "setting": "[1]; SMF−", "value": 1.4, "unit": "µg/mL"},
      {"measurement": "IC50 VALUES, F culmorum, SMF + 1 mM CaCl2/50 mM KCl", "setting": "[2]; 96 hours", "value": 2.3, "unit": "µg/mL"},
      {"measurement": "IC50 VALUES, F culmorum, SMF + 5 mM CaCl2/50 mM KCl", "setting": "[2]; 96 hours", "value": 7.0, "unit": "µg/mL"},
      {"measurement": "fold activity relative to Rs-AFP2 against F culmorum", "setting": "[2]; [10]", "value": "approximately two-fold more active"},
      {"measurement": "IC50 VALUES, F culmorum, SMF", "setting": "[2]; SMF−, 96 hours", "value": 2.2, "unit": "µg/mL"},
      {"measurement": "IC50 VALUES, A brassicicola, SMF + 1 mM CaCl2/50 mM KCl", "setting": "[3]; 72 hours", "value": 50, "unit": "µg/mL"},
      {"measurement": "IC50 VALUES, A brassicicola, SMF + 5 mM CaCl2/50 mM KCl", "setting": "[3]; 72 hours", "value": ">100", "unit": "µg/mL"},
      {"measurement": "IC50 VALUES, A brassicicola, SMF", "setting": "[3]; SMF−, 72 hours", "value": 2.5, "unit": "µg/mL"},
      {"measurement": "activity against A brassicola compared with Rs-AFP2, in words", "setting": "[3]; Table 3 data", "value": "comparable to the activity of Rs-AFP2"},
      {"measurement": "IC50 VALUES, V dahliae, SMF + 1 mM CaCl2/50 mM KCl", "setting": "[4]; 96 hours", "value": 2.3, "unit": "µg/mL"},
      {"measurement": "IC50 VALUES, V dahliae, SMF + 5 mM CaCl2/50 mM KCl", "setting": "[4]; 96 hours", "value": 6.0, "unit": "µg/mL"},
      {"measurement": "fold activity relative to Rs-AFP2 against V dahliae", "setting": "[4]; [10]", "value": "five-fold more active"},
      {"measurement": "IC50 VALUES, V dahliae, SMF", "setting": "[4]; SMF−, 96 hours", "value": 0.4, "unit": "µg/mL"},
      {"measurement": "IC50 VALUES, A pisi, SMF + 1 mM CaCl2/50 mM KCl", "setting": "[5]; 72 hours", "value": ">50", "unit": "µg/mL"},
      {"measurement": "IC50 VALUES, A pisi, SMF + 5 mM CaCl2/50 mM KCl", "setting": "[5]; 72 hours", "value": ">100", "unit": "µg/mL"},
      {"measurement": "IC50 VALUES, A pisi, SMF", "setting": "[5]; SMF−, 72 hours", "value": 2.0, "unit": "µg/mL"},
      {"measurement": "activity against A pisi compared with Rs-AFP2, in words", "setting": "[5]; Table 3 data", "value": "comparable to the activity of Rs-AFP2"},
      {"measurement": "IC50 VALUES, N haematococca, SMF + 1 mM CaCl2/50 mM KCl", "setting": "[6]; 72 hours", "value": 9.0, "unit": "µg/mL"},
      {"measurement": "IC50 VALUES, N haematococca, SMF + 5 mM CaCl2/50 mM KCl", "setting": "[6]; 72 hours", "value": 62.0, "unit": "µg/mL"},
      {"measurement": "fold activity relative to Rs-AFP2 against N haematococca", "setting": "[6]; [10]", "value": "five-fold more active"},
      {"measurement": "IC50 VALUES, N haematococca, SMF", "setting": "[6]; SMF−, 72 hours", "value": 2.1, "unit": "µg/mL"},
      {"measurement": "IC50 VALUES, B cinerea, SMF + 1 mM CaCl2/50 mM KCl", "setting": "[7]; 72 hours", "value": ">50", "unit": "µg/mL"},
      {"measurement": "IC50 VALUES, B cinerea, SMF + 5 mM CaCl2/50 mM KCl", "setting": "[7]; 72 hours", "value": ">100", "unit": "µg/mL"},
      {"measurement": "IC50 VALUES, B cinerea, SMF", "setting": "[7]; SMF−, 72 hours", "value": 1.6, "unit": "µg/mL"},
      {"measurement": "activity against B cinerea compared with Rs-AFP2, in words", "setting": "[7]; Table 3 data", "value": "comparable to the activity of Rs-AFP2"},
      {"measurement": "RELATIVE SPECIFIC ACTIVITY (%) IN MEDIUM SMF+", "setting": "[8]; 1/IC50 of mutant divided by that of yRs-AFP2 x 100, 48 hour incubation, SMF with 1 mM CaCl2 and 50 mM KCl, preliminary tests", "value": 114, "unit": "%"},
      {"measurement": "RELATIVE SPECIFIC ACTIVITY (%) IN MEDIUM SMF−", "setting": "[8]; 1/IC50 of mutant divided by that of yRs-AFP2 x 100, 48 hour incubation, low ionic strength medium, preliminary tests", "value": 74, "unit": "%"},
      {"measurement": "IC50 SMF+", "setting": "[8]; 72 hours growth, high salt medium (1 mM CaCl2, 50 mM KCl), triplicate", "value": 3.2},
      {"measurement": "IC50 SMF−", "setting": "[8]; 72 hours growth, low salt medium, triplicate", "value": 4.0},
      {"measurement": "antifungal activity in SMF+ relative to wild-type Rs-AFP2", "setting": "[8]; SMF+", "value": "approximately two-fold higher"},
      {"measurement": "antifungal activity compared with yRs-AFP2, in words", "setting": "[8]; Table 1 tests, SMF− and SMF+", "value": "maintain their antifungal activity"},
      {"measurement": "effect of substitution on antifungal activity in SMF+, in words", "setting": "[8]; Table 2 tests, high salt medium", "value": "increased antifungal activity"},
      {"measurement": "effect of substitution on antifungal activity in SMF−, in words", "setting": "[8]; Table 2 tests, low salt medium", "value": "little effect on the antifungal activity"},
      {"measurement": "relative specific antifungal activity (1/IC50), FIG. 6, in words", "setting": "[8]; medium SMF+, Rs-AFP2 set at 100", "value": "particularly active"},
      {"measurement": "reduction of antifungal activity by cations, compared with wild-type Rs-AFP2", "setting": "[9]; FIG. 7", "value": "less reduced by the presence of cations"},
      {"measurement": "activity in the presence of 100 mM KCl", "setting": "[9]; SMF with 100 mM KCl, FIG. 7, 10 μg/ml", "value": "fully inhibitory"},
      {"measurement": "growth inhibition in the presence of 5mM CaCl2", "setting": "[9]; protein 10 μg/ml, SMF with 5mM CaCl2", "value": "complete inhibition"}
    ]}
  ]
}
